The numbers were not newly measured in patent publication US20120225135A1 (priority 2010, published 2012), which cites them from elsewhere.

This data set relates to biofilm. The conditions noted are these: cited from earlier work.

Regarding `O=CCCCC=O` [Glutaraldehyde], the effect on biofilm entry is on record as “no effect on biofilm”.
In the case of `O=[O+][O-]` [Ozone], the effect on biofilm entry is “kill cells in the biofilm without any detachment of the biofilm”.
On to `OO` [hydrogen peroxide], for which the “effect on biofilm detachment” value is given as “very poor to no effect”.
Consider `CC(=O)OO` [peracetic acids], for which the “effect on biofilm detachment” value is on record as “very poor to no effect”.
As to chloramines, the detachment of biofilms result is reported as “very effective”.
